Legend:
[1] = test system: Purkinje neurons (PNs) of the cerebellar slice; test: Whole-cell current clamp of Purkinje neurons, action potential firing; assay type: cell-based, mouse
Method: The effects of MPC088 on action potential firing in PNs of the cerebellar slice were also examined. These experiments were similar to those, except that the cells were recorded under current-clamp in order to allow the cell to spike. […] Representative data was obtained by whole-cell current-clamp recording from a PN which was injected with 468 pA to elicit a high-frequency train of action potentials. […] The cell was then exposed for 1-s durations to UV light (UV1), then blue light, and then again with UV (UV2). […] Below this trace is plotted the instantaneous firing frequency vs. time; the dashed line reflects the average firing frequency during the 1-s epoch that preceded the first UV exposure (FIG. 41a). FIG. 41b depicts a summary of results from experiments of the type shown in a. Average spike frequencies were obtained for each cell in each of five 1-s epochs, then normalized to the pre-GABA/MPC088 firing frequency (n=8 cells from 4 animals). Error bars here and in c represent the SEM. Repeated-measures ANOVA on the aggregate data yielded F(3,21)=10.213, p<0.001. […] Significance was determined from post-hoc paired-sample t-tests corrected for multiple comparisons, which yielded p<0.02. […]
To further address whether MPC088 has non-specific effects on excitability, the spikes elicited in the experiment described in FIG. 41 were analyzed. […] Three action potential (AP) parameters were measured: peak amplitude, half width, and maximum rise slope. […] AP waveform parameters were calculated for pre-puff, blue light, and UV epochs. […]
For the voltage-clamp experiments of FIG. 40, each cell was […] between 1-6 trials of the drug application+light flash protocol. […] A peri-stimulus time histogram (PSTH) was calculated for each trial using 250-ms time bins; these were averaged across trials to produce a PSTH for the experiment, using the software TaroTools (Dr. Taro Ishikawa, Jikei University School of Medicine, Tokyo, Japan) and Igor Pro 6.2 (WaveMetrics, Inc., Lake Oswego, Oreg.).

[2] = biological target: T1, GABAAR subtype that consists of a pentameric assembly of p1 subunits (Homo sapiens, UniProt P24046); test: Oocytes expressing the GABAAR subtype of p1 subunits; assay type: cell-based
T1 construct: expressed in transfected cells; host or cells: Xenopus oocytes
T1 sequence (P24046 22-479): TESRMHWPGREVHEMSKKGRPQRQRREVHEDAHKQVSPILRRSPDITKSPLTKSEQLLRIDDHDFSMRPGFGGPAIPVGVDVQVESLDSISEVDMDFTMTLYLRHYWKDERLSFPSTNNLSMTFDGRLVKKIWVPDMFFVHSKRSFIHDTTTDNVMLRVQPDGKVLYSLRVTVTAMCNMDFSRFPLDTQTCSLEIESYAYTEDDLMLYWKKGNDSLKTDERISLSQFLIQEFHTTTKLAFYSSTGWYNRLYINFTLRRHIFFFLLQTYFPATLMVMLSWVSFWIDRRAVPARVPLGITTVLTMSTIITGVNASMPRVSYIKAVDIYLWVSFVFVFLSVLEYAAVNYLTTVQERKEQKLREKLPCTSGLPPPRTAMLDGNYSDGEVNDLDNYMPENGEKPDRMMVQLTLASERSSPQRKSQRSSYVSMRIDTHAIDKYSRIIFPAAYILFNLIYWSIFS

Structure (SMILES): CC(C)c1cc(CCCC(=O)NCc2ccc(/N=N/c3ccc(C(=O)NCCN)cc3)cc2)cc(C(C)C)c1O [MPC088, (E)-N-(2-Aminoethyl)-4-((4-((4-(4-hydroxy-3,5-diisopropylphenyl)butanamido)methyl)phenyl)diazenyl)benzamide]
- firing rate produced by blue light relative to that produced by UV light ([1]; 10 μM GABA + 30 μM MPC088, UV-Blue-UV flashes): 52±14%
- decrease of firing rate ([1]; 10 μM GABA + 30 μM trans-dominant MPC088): approximately 50%
- effects on AP waveform ([1]; peak amplitude, half width, maximum rise slope): no detectable effects
- potentiating and direct agonist activity [2]: lacked both potentiating and direct agonist activity

Reference: US9399145B2, “Nanoscale neuromodulating platform for retina neuron activation apparatus and method” (The Board of Trustees of the University of Illinois, priority 2005, dated 2016)
